Experimental data reported in the NIST ThermoML archive (doi:10.1021/je050498q).

Assay: mn = molality of the nth substance listed, in mol/kg
Settings: 101 kPa, Liquid

O=C([O-])[C@H](O)[C@@H](O)C(=O)[O-].[Na+].[Na+] [disodium L-tartrate] + O
Settings | mass density, 298.15 K [kg/m3] | mass density, 308.15 K [kg/m3] | mass density, 318.15 K [kg/m3] | speed of sound, 298.15 K [m/s] | speed of sound, 308.15 K [m/s] | speed of sound, 318.15 K [m/s]
m1 = 0.0325 | 1001.45 | 998.34 | 994.47 | 1502 | 1524.8 | 1541.3
m1 = 0.0351 | 1001.8 | 998.7 | 994.82 | 1502.3 | 1525.2 | 1541.7
m1 = 0.0405 | 1002.51 | 999.4 | 995.52 | 1503.1 | 1526 | 1542.3
m1 = 0.0552 | 1004.48 | 1001.34 | 997.43 | 1505.4 | 1528 | 1544.3
m1 = 0.0576 | 1004.79 | 1001.64 | 997.72 | 1505.7 | 1528.4 | 1544.6
m1 = 0.0673 | 1006.08 | 1002.91 | 998.99 | 1507.2 | 1529.7 | 1545.9
m1 = 0.0747 | 1007.06 | 1003.87 | 999.92 | 1508.2 | 1530.7 | 1547
m1 = 0.0814 | 1007.94 | 1004.73 | 1000.77 | 1509.9 | 1531.6 | 1547.7
m1 = 0.1365 | 1015.14 | 1011.79 | 1007.83 | 1517.3 | 1539.2 | 1554.9
m1 = 0.2798 | 1033.29 | 1029.68 | 1025.48 | 1537.5 | 1558.2 | 1572.9
m1 = 0.4159 | 1049.92 | 1046.11 | 1041.78 | 1556.3 | 1575.8 | 1589.4
m1 = 0.5661 | 1067.63 | 1063.54 | 1059.16 | 1576.4 | 1594.6 | 1607.3
m1 = 0.7158 | 1084.68 | 1080.39 | 1075.77 | 1598.6 | 1615.3 | 1624.1
m1 = 0.888 | 1103.52 | 1098.96 | 1094.15 | 1618.5 | 1633.8 | 1644
m1 = 1.055 | 1121.13 | 1116.46 | 1111.35 | 1639.6 | 1653.6 | 1662.2
m1 = 1.211 | 1137 | 1132.16 | 1126.7 | 1659 | 1671.7 | 1679.2
m1 = 1.412 | 1156.69 | 1151.68 | 1146.41 | 1683.6 | 1694.5 | 1701.2
m1 = 1.593 | 1173.71 | 1168.58 | 1163.14 | 1705.1 | 1714.6 | 1719.8
m1 = 1.749 | 1187.9 | 1182.99 | 1176.91 | 1723.3 | 1732 | 1734.8
m1 = 2.203 | 1226.56 | 1221.08 | 1215.23 | 1774 | 1778.7 | 1779.7
